# US8067015B2, “Methods and compositions for the treatment and prevention of Staphylococcus and other bacterial infections” (priority 1997, dated 2011)
# Where no end group is shown, it is not given here.
# Legend:
# [1] = system: S. epidermidis MRSE strain; experiment: Rat subcutaneous Dacron graft infection model, MRSE strain; format: in vivo; conditions: for Bacterial concentration, MRSE: 2×10^7 bacteria, explanted day 7; for Bacterial concentration, MRSE / Bacterial load on graft, MRSE: mean ± SD; for Bacterial load on graft, MRSE: Table 3A S. epidermidis
# Method: (§1) Rats (Wistar adult males (300-350 g), n=15/experimental group) were anaesthetized, hair on their back shaved and the skin cleansed with 10% povidone-iodine solution. A subcutaneous pocket was made on the side of the median line by a 1.5 cm incision. Aseptically, 1 cm^2 sterile collagen-sealed Dacron graft (Albograft™, Sorin Biomedica Cardio, S.p.A., Saluggi VC, Italy) was implanted into the pocket. […] Pockets were closed by skin clips and 1 ml sterile saline solution with or without 2×10^7 bacteria was inoculated onto the graft surface using a tuberculin syringe to create a subcutaneous fluid-filled pocket. Some of the animals that had grafts soaked only with RIP or saline were injected intraperitoneally with antibiotics (cefazolin 30 mg/kg, imipenem 30 mg/kg, teicoplanin 10 mg/kg, levofloxacin 10 mg/kg). Grafts were explanted 7 days following implantation.
# (§2) The explanted grafts were placed in sterile tubes, washed in sterile saline solution, placed in tubes containing 10 ml of phosphate-buffered saline solution and sonicated for 5 min to remove the adherent bacteria from the grafts. Quantitation of viable bacteria was performed by culturing serial 10-fold dilutions (0.1 ml) of the bacterial suspension on blood agar plates. All plates were incubated at 37° C. for 48 hr and evaluated for the presence of the strain. Bacteria were quantitated by counting the number of colony forming unites (CFU) per plate. To determine if bacteria were efficiently removed from the graft, washed and sonicated grafts were observed under a Nikon Eclipse E 600 optical microscope (Nikon Y-THS, Japan).
# Quantitative culture results of the in vivo experiments were presented as mean+SD of the mean. Comparisons of the results were performed by the analysis of variance (ANOVA) on the log-transformed data. Statistical analysis was performed for in vitro adhesion assays using Student's t-Test by Microsoft Excel (Microsoft, Wash.). Significance was accepted when the P value was <0.05.
# To test if RIP can prevent graft-associated infections, Dacron grafts were coated with or without RIP, and with or without various types of antibiotics (for local prophylaxis experiments). Coated grafts were implanted in rats, bacteria injected into the implants, implants removed after a week, and bacterial load determined. Alternatively, Dacron grafts were first coated with RIP, bacteria injected, and antibiotics were administered by the intraperitoneal route (for parenteral prophylaxis experiments). As a negative control, grafts were implanted without local or parenteral RIP/antibiotics prophylaxis and no bacteria were injected. As a positive control, grafts were implanted, bacteria were injected, but no RIP/antibiotics prophylaxis was given.
# (§3) Animals (15/group) received a Dacron-graft implanted in a subcutaneous pocket. Graft was subsequently infected with either S. epidermidis (tested on MSSE, MRSE and GISE) or with S. aureus (tested on MSSA, MRSA and GISA). The Dacron-graft prior to implantation was soaked in saline with or without 20 mg/l of RIP and some animals received […] of RIP i.p. as a prophylaxis treatment.
# [2] = system: S. aureus MRSA; experiment: Rat subcutaneous Dacron graft infection model, MRSA strain; format: in vivo; conditions: Table 3B S. aureus, mean ± SD
# Method: as §1, with “implantation. Estimated RIP that adhered to graft was 10-26 μg.” for “implantation.”
# as §2, §3
# [3] = system: S. aureus MSSA; experiment: Rat subcutaneous Dacron graft infection model, MSSA strain; format: in vivo; conditions: Table 3B S. aureus, mean ± SD
# Method: as §1, with “implantation. Estimated RIP that adhered to graft was 10-26 μg.” for “implantation.”
# as §2, §3
# [4] = system: S. epidermidis (all strains tested); experiment: Rat subcutaneous Dacron graft infection model, all strains tested (GISE, MRSE, MSSE); format: in vivo; conditions: RIP-coated graft
# Method: as §1, with “Some of the animals that had grafts soaked only with RIP or saline were injected intraperitoneally with antibiotics (cefazolin 30 mg/kg, imipenem 30 mg/kg, teicoplanin 10 mg/kg, levofloxacin 10 mg/kg). Grafts were explanted 7 days following implantation.” left out
# as §2, with “To determine if bacteria were efficiently removed from the graft, washed and sonicated grafts were observed under a Nikon Eclipse E 600 optical microscope (Nikon Y-THS, Japan).” left out
# Quantitative culture results of the in vivo experiments were presented as mean+SD of the mean. […]
# [5] = system: S. epidermidis adherence to HaCat cells; experiment: Adherence of FITC-labeled S. epidermidis to HaCat cells; format: cell-based; conditions: 5 μg RIP, 10^6 CFU, 30 min at 37° C.
# Method: FIG. 14A is a graph depicting adherence in the presence of RIP (RIP+) and in the absence of RIP (RIP−). FITC-labeled bacterial cells (10^6 CFU) were applied to microtiter plates containing confluent 10^4 HaCat cells, in the presence or absence of 5 μg RIP (RIP+/−). Cells were incubated for 30 min at 37° C., washed in PBS and fluorescence at 485/530 nm was determined.
# Virulence of S. epidermidis is also often associated with their ability to adhere to host cells and to form biofilm on medical devices. To test whether RIP can prevent S. epidermidis from colonizing host cells and therefore be a candidate for therapy and prevention, FITC-labeled S. epidermidis were incubated in the presence or absence of RIP with a confluent layer of keratinocytes (HaCat cells) for 30 min.
# [6] = system: S. epidermidis adherence to polystyrene; experiment: Adherence and biofilm formation of S. epidermidis on polystyrene (safranin); format: cell-based; conditions: polystyrene microtiter plates, 3 hrs
# Method: FIG. 14B is a graph depicting adherence in the presence of RIP RIP+ and in the absence of RIP RIP−. S. epidermidis were grown in polystyrene plates for 3 hrs, adherent bacteria were stained by safranin, and absorbance at 490 nm was determined.
# To test whether RIP reduces adherence and biofilm formation of S. epidermidis to plastic, early exponential S. epidermidis were grown for 3 hrs in microtiter plates made of polystyrene, and adherent cells were stained with safranin. These experimental conditions allow for biofilm to be formed (as observed by atomic force microscopy, not shown).
# [7] = system: RNAIII; conditions: cited from earlier work
# [8] = system: S. aureus Smith Diffuse; conditions: mice; cited from earlier work
# [9] = system: S. aureus LS-1; conditions: mice; cited from earlier work
# [10] = system: S. aureus MS; conditions: rabbits; cited from earlier work
# [11] = system: S. aureus Newbould 305, AE-1, and environmental infections; conditions: cows; cited from earlier work
# [12] = system: bacterial adhesion to polystyrene, silicone and polyurethane; conditions: cited from earlier work
# [13] = RIP local (graft soaked in 20 mg/l RIP)
# [14] = RIP parenteral (10 mg/l RIP i.p.)
substance,measurement,setting,value
YSPWTNF(—NH2) (YSPWTNF-NH2) [RIP],"Bacterial concentration, MRSE","[1]; A. Local prophylaxis: graft soaked 20 min in RIP 10 mg/l and/or antibiotic (mupirocin 100, quinupristin-dalfopristin 50, levofloxacin 30, rifampin 5 mg/l), rats",0.74 ± 0.18 ×10^4 CFU/ml
same,"Bacterial concentration, MRSE","[1]; B. Parenteral prophylaxis: antibiotic intraperitoneally (cefazolin 30, imipenem 30, teicoplanin 10, levofloxacin 10 mg/kg), RIP as 10 mg/l graft soak, rats",0.74 ± 0.18 ×10^4 CFU/ml
same,"Bacterial load on graft, MRSE",[1]; [13],0.087 ± 0.023 ×10^4 CFU/ml
same,"Bacterial load on graft, MRSE",[1]; RIP local + RIP parenteral,0.00 ± 0 ×10^4 CFU/ml
same,"Bacterial load on graft, MRSE",[1]; [14],0.052 ± 0.017 ×10^4 CFU/ml
same,"Quantitative culture results of explanted graft, MRSE strain","[1]; peptide-soaked/coated Dacron graft (RIP 10 mg/l), no antibiotic, rats, day 7",7.4×10^3±1.8×10^3 CFU/ml
same,"Bacterial load on graft, MRSE",[2]; [13],0.62 ± 0.21 ×10^4 CFU/ml
same,"Bacterial load on graft, MRSE",[2]; RIP local + RIP parenteral,0.00 ± 0 ×10^4 CFU/ml
same,"Bacterial load on graft, MRSE",[2]; [14],0.29 ± 0.088 ×10^4 CFU/ml
same,"Bacterial load on graft, MSSE",[3]; [13],0.55 ± 0.19 ×10^4 CFU/ml
same,"Bacterial load on graft, MSSE",[3]; RIP local + RIP parenteral,0.00 ± 0 ×10^4 CFU/ml
same,"Bacterial load on graft, MSSE",[3]; [14],0.045 ± 0.009 ×10^4 CFU/ml
same,Reduction of bacterial load,[4],3 log
same,S. epidermidis adherence to HaCat cells,[5],significantly (p<0.05) reduced
same,Number of cells that adhered to the plastic,[6],significantly reduced
same,Inhibiting RNAIII in vitro,[7],extremely effective
same,Suppressing S. aureus infection: cellulitis,[8],extremely effective
same,Suppressing S. aureus infection: septic arthritis,[9],extremely effective
same,Suppressing S. aureus infection: osteomyelitis,[10],extremely effective
same,Suppressing S. aureus infection: mastitis,[11],extremely effective
same,Bacterial adhesion to plastic,[12],decreased
